Here are results for 7 compounds from PubChem BioAssay AID1259407 (Chemical Carcinogenesis Research Information System (CCRIS), 2018).

This data set concerns CCRIS mutagenicity, Ames/micronucleus/aberration tests. In words: CCRIS mutagenicity studies.
[1] abbreviates: Test System: AMES SALMONELLA TYPHIMURIUM, Strain/Indicator: TA98, Metabolic Activation: NONE, Method: STANDARD PLATE.
The mark [2] stands for this setting: Test System: AMES SALMONELLA TYPHIMURIUM, Strain/Indicator: TA100, Metabolic Activation: NONE, Method: STANDARD PLATE.

Activity calls are given as the source filed them. The rule behind the calls is not given here.

For the compound `O=NN1CCC[C@H]1c1cccnc1`, the mutagenic call reads like this: (Test System: AMES SALMONELLA TYPHIMURIUM, Strain/Indicator: TA98, Metabolic Activation: HAMSTER, LIVER, S-9, AROCLOR 1254, Method: STANDARD PLATE) “inactive; negative”; under setting [1], “inactive; negative”; (Test System: AMES SALMONELLA TYPHIMURIUM, Strain/Indicator: TA98, Metabolic Activation: RAT, LIVER, S-9, AROCLOR 1254, Method: STANDARD PLATE) “inactive; negative”; (Test System: AMES SALMONELLA TYPHIMURIUM, Strain/Indicator: TA100, Metabolic Activation: HAMSTER, LIVER, S-9, AROCLOR 1254, Method: STANDARD PLATE) “inactive; negative”; (Test System: AMES SALMONELLA TYPHIMURIUM, Strain/Indicator: TA100, Metabolic Activation: NONE, Method: PREINCUBATION) “active; positive”; under setting [2], “inactive; negative”. The mutagenic call reads like this: (Test System: AMES SALMONELLA TYPHIMURIUM, Strain/Indicator: TA100, Metabolic Activation: RABBIT, LUNG, CLARA CELLS, Method: PREINCUBATION) “inactive; negative”; (Test System: AMES SALMONELLA TYPHIMURIUM, Strain/Indicator: TA100, Metabolic Activation: RABBIT, LUNG, MACROPHAGES, Method: PREINCUBATION) “inactive; negative”; (Test System: AMES SALMONELLA TYPHIMURIUM, Strain/Indicator: TA100, Metabolic Activation: RABBIT, LUNG, S-9, Method: PREINCUBATION) “active; positive”; (Test System: AMES SALMONELLA TYPHIMURIUM, Strain/Indicator: TA100, Metabolic Activation: RABBIT, LUNG, TYPE II CELLS, Method: PREINCUBATION) “inactive; negative”; (Test System: AMES SALMONELLA TYPHIMURIUM, Strain/Indicator: TA100, Metabolic Activation: RAT LIVER S-9, AROCLOR 1254, Method: PREINCUBATION) “inactive; negative”; (Test System: AMES SALMONELLA TYPHIMURIUM, Strain/Indicator: TA1530, Metabolic Activation: RABBIT, LUNG, CLARA CELLS, Method: PREINCUBATION) “inactive; negative”. The mutagenic call was “inactive; negative” (Test System: AMES SALMONELLA TYPHIMURIUM, Strain/Indicator: TA1530, Metabolic Activation: RABBIT, LUNG, MACROPHAGES, Method: PREINCUBATION); “active; positive” (Test System: AMES SALMONELLA TYPHIMURIUM, Strain/Indicator: TA1530, Metabolic Activation: RABBIT, LUNG, S-9, Method: PREINCUBATION); “inactive; negative” (Test System: AMES SALMONELLA TYPHIMURIUM, Strain/Indicator: TA1530, Metabolic Activation: RABBIT, LUNG, TYPE II CELLS, Method: PREINCUBATION); “active; positive” (Test System: AMES SALMONELLA TYPHIMURIUM, Strain/Indicator: TA1535, Metabolic Activation: HAMSTER, LIVER, S-9, AROCLOR 1254, Method: STANDARD PLATE); “inactive; negative” (Test System: AMES SALMONELLA TYPHIMURIUM, Strain/Indicator: TA1535, Metabolic Activation: NONE, Method: STANDARD PLATE); “inactive; negative” (Test System: AMES SALMONELLA TYPHIMURIUM, Strain/Indicator: TA1535, Metabolic Activation: RAT, LIVER, S-9, AROCLOR 1254, Method: STANDARD PLATE). Besides, the mutagenic call reads like this: (Test System: AMES SALMONELLA TYPHIMURIUM, Strain/Indicator: TA1537, Metabolic Activation: HAMSTER, LIVER, S-9, AROCLOR 1254, Method: STANDARD PLATE) “inactive; negative”; (Test System: AMES SALMONELLA TYPHIMURIUM, Strain/Indicator: TA1537, Metabolic Activation: NONE, Method: STANDARD PLATE) “inactive; negative”; (Test System: AMES SALMONELLA TYPHIMURIUM, Strain/Indicator: TA1537, Metabolic Activation: RAT, LIVER, S-9, AROCLOR 1254, Method: STANDARD PLATE) “inactive; negative”; (Test System: AMES SALMONELLA TYPHIMURIUM, Strain/Indicator: TA1538, Metabolic Activation: HAMSTER, LIVER, S-9, AROCLOR 1254, Method: STANDARD PLATE) “inactive; negative”; (Test System: AMES SALMONELLA TYPHIMURIUM, Strain/Indicator: TA1538, Metabolic Activation: NONE, Method: STANDARD PLATE) “inactive; negative”; (Test System: AMES SALMONELLA TYPHIMURIUM, Strain/Indicator: TA1538, Metabolic Activation: RAT, LIVER, S-9, AROCLOR 1254, Method: STANDARD PLATE) “inactive; negative”. Also, the mutagenic call reads like this: (Test System: AMES SALMONELLA TYPHIMURIUM, Strain/Indicator: TA7004, Metabolic Activation: HAMSTER LIVER S-9, AROCLOR 1254, Method: PREINCUBATION) “inactive; negative”; (Test System: AMES SALMONELLA TYPHIMURIUM, Strain/Indicator: TA7004, Metabolic Activation: NONE, Method: PREINCUBATION) “active; positive”; (Test System: AMES SALMONELLA TYPHIMURIUM, Strain/Indicator: TA7004, Metabolic Activation: RAT LIVER S-9, AROCLOR 1254, Method: PREINCUBATION) “inactive; negative”; (Test System: CHINESE HAMSTER V-79, Strain/Indicator: V-79 (HPRT)/6-THIOGUANINE, Metabolic Activation: RAT, HEPATOCYTES) “inactive; negative”; (Test System: CHINESE HAMSTER V-79, Strain/Indicator: V-79 (HPRT)/6-THIOGUANINE, Metabolic Activation: RAT, LIVER, S-9, AROCLOR 1254) “inactive; negative”; (Test System: UDS RABBIT LUNG CLARA CELLS, Strain/Indicator: THY INCORP, Metabolic Activation: NONE, Method: LIQUID SCINTILLATION COUNTING) “inactive; negative”. The mutagenic call is, setting by setting: (Test System: UDS RABBIT LUNG MACROPHAGES, Strain/Indicator: THY INCORP, Metabolic Activation: NONE, Method: LIQUID SCINTILLATION COUNTING) “inactive; negative”; (Test System: UDS RABBIT LUNG TYPE II CELLS, Strain/Indicator: THY INCORP, Metabolic Activation: NONE, Method: LIQUID SCINTILLATION COUNTING) “inactive; negative”; (Test System: UDS RODENT HEPATOCYTES, Strain/Indicator: THY INCORP (NON-S-PHASE), Method: AUTORADIOGRAPHY) “active; positive”.

Regarding `CCCCBr`, the mutagenic call (End Point: In vitro micronucleus, Test System: Chinese Hamster Ovary (CHO-WBL) cells, Metabolic Activation: None) was “inactive; negative”; the mutagenic call (Test System: AMES SALMONELLA TYPHIMURIUM, Strain/Indicator: TA100, Metabolic Activation: NONE, Method: DESICCATOR) is “active; positive”; the mutagenic call (Test System: AMES SALMONELLA TYPHIMURIUM, Strain/Indicator: TA100, Metabolic Activation: RAT, LIVER, S-9, AROCLOR 1254, Method: DESICCATOR) was “active; positive”; the mutagenic call (Test System: AMES SALMONELLA TYPHIMURIUM, Strain/Indicator: TA1535, Metabolic Activation: NONE, Method: DESICCATOR) is “active; positive”; the mutagenic call (Test System: AMES SALMONELLA TYPHIMURIUM, Strain/Indicator: TA1535, Metabolic Activation: RAT, LIVER, S-9, AROCLOR 1254, Method: DESICCATOR) was “active; positive”.

`Cc1c2c3ccccc3nc-2n(C)c2ccccc12`: the mutagenic call was “active; positive” (Test System: AMES SALMONELLA TYPHIMURIUM, Strain/Indicator: TA97, Metabolic Activation: RAT, LIVER, S-9, AROCLOR 1254, Method: STANDARD PLATE) and “active; positive” (Test System: AMES SALMONELLA TYPHIMURIUM, Strain/Indicator: TA102, Metabolic Activation: RAT, LIVER, S-9, AROCLOR 1254, Method: STANDARD PLATE).

Turning to `CN(CC(N)=O)C(=O)N(CCCl)N=O`, the mutagenic call (Test System: Mouse lymphoma, Strain/Indicator: L5178Y (tk+/tk-), Metabolic Activation: None, Method: Suspension/plate) was “active; positive” and the mutagenic call (Test System: Mouse lymphoma, Strain/Indicator: L5178Y (tk+/tk-), Metabolic Activation: Rat, Liver, S-9, Aroclor 1254, Method: Suspension/plate) is “active; positive”.

For the compound `Cc1ccc(NCC2(O)OC[C@@H](O)[C@@H](O)[C@@H]2O)cc1` (stereo partly drawn), the mutagenic call (Test System: AMES SALMONELLA TYPHIMURIUM, Strain/Indicator: TA100, Metabolic Activation: NONE, Method: LIQUID INCUBATION) was “inactive; negative”.

On to `Cc1cncc(C)c1.Cc1cncc(C)c1.[Cl][Pt][Cl]`, for which the mutagenic call (Test System: AMES SALMONELLA TYPHIMURIUM, Strain/Indicator: TA92, Metabolic Activation: NONE, Method: STANDARD PLATE) is “inactive; negative”; the mutagenic call under setting [1] was “active; positive”; the mutagenic call under setting [2] is “inactive; negative”; the mutagenic call (Test System: AMES SALMONELLA TYPHIMURIUM, Strain/Indicator: TA2410, Metabolic Activation: NONE, Method: STANDARD PLATE) was “active; positive”.

As for `Cc1cccc2c3c(c4cc5ccccc5cc4c12)O3`, the mutagenic call (Test System: AMES SALMONELLA TYPHIMURIUM, Strain/Indicator: TA98, Metabolic Activation: NONE, Method: PREINCUBATION) was “active; positive”.
